Source: PMC6320863, “Interaction of Chrysin and Its Main Conjugated Metabolites Chrysin-7-Sulfate and Chrysin-7-Glucuronide with Serum Albumin” (International Journal of Molecular Sciences, 2018)

Assays:
[1] = tested on: T1, warfarin–HSA complex (Sudlow's Site I); test: Ultrafiltration: displacement of Site I marker warfarin from HSA; assay type: binding, human; conditions: 1 µmol/L warfarin, 5 µmol/L HSA, PBS pH 7.4
T1 construct: purchased Sigma-Aldrich
Method: (§1) Effects of chrysin, C7S, and C7G on the albumin-binding of Sudow’s Site I (warfarin) and Site II (naproxen) markers were tested by ultrafiltration. In these experiments, Pall Microsep^TM Advance Centrifugal Devices (Pall Corporation, Ann Arbor, MI, USA) (from VWR) with a 30 kDa molecular weight cut-off value were employed, as described elsewhere. To examine the displacement of warfarin by flavonoids, samples contained warfarin and HSA (1.0 and 5.0 µmol/L, respectively) in the absence and presence of flavonoids (10 or 20 µmol/L). Furthermore, to test the displacing ability of chrysin and its metabolites vs. naproxen, flavonoids (10 or 20 µmol/L) were added to naproxen and HSA (1.0 and 1.7 µmol/L, respectively). Each sample was prepared in PBS (pH 7.4). Before ultrafiltration, filter units were washed once with 3 mL of water, and twice with 3 mL of PBS (to completely eliminate glycerol from the filters). Thereafter, samples (2.5 mL each) were driven through the filter units by centrifugation at 7500 g and 25 °C for 10 min (fixed angle rotor). Concentrations of warfarin and naproxen in the filtrate were quantified with HPLC (see details in Section 4.4).
(§2) The HPLC system used to quantify warfarin and naproxen was equipped with a pump (model 510, Waters, Milford, MA, USA) and an injector (Rheodyne 7125, Rheodyne, Berkeley, CA, USA) with a 20 µL sample loop. Warfarin and naproxen were analyzed with a fluorescence detector (Jasco FP-920, Reanal) and an UV detector (Waters 486), respectively. Data were evaluated using Millennium Chromatography Manager (Waters).
Warfarin was analyzed based on the previously reported method without modifications. Methanol (VWR), acetonitrile (VWR), and sodium phosphate buffer (20 mM, pH 7.0) (25:5:70 v/v%) were applied in the mobile phase with 1 mL/min flow rate during the isocratic elution. Samples were driven through a guard column (Phenomenex SecurityGuard^TM Catridge C18 4.0 × 3.0 mm) linked to an analytical column (Nova-Pak C18 150 × 3.9 mm, 4 μm). Separation and analysis were performed at room temperature, during which warfarin was detected by fluorescence employing 310 and 390 nm as excitation and emission wavelengths, respectively.

HSA = conditions: cited from earlier work
warfarin–HSA complex [2] = tested on: T2, warfarin–HSA complex; test: Fluorescence anisotropy of warfarin–HSA complex; assay type: binding, human; conditions: 1.0 µmol/L warfarin, 2.0 µmol/L HSA, increasing flavonoid concentrations, λex 317 nm, λem 379 nm
T2 construct: purchased Sigma-Aldrich
Method: (§3) Fluorescence spectroscopic measurements were carried out employing a Hitachi F-4500 fluorimeter (Tokyo, Japan). Absorption spectra of flavonoids were recorded using a HALO DB-20 UV-Vis spectrophotometer (Dynamica, London, UK). Spectroscopic measurements were performed in phosphate-buffered saline (pH 7.4; PBS: 8.0 g/L NaCl, 0.2 g/L KCl, 1.81 g/L Na2HPO4·2H2O, and 0.24 g/L KH2PO4) at room temperature, in the presence of air.
To confirm further the displacement of warfarin from HSA by chrysin, C7S, and C7G, fluorescence anisotropy measurements were also performed. Increasing concentrations of flavonoids (0.0, 1.0, 2.0, 5.0, and 10 µmol/L) were added to warfarin and HSA (1.0 and 2.0 µmol/L, respectively). Fluorescence anisotropy values were determined (λex = 317 nm; λem = 379 nm) as described.

[3] = target: T3, human serum albumin (HSA) (Homo sapiens, UniProt P02768); test: Fluorescence quenching of HSA by flavonoids (Stern–Volmer and Hyperquad2006 evaluation); assay type: binding; conditions: for Kd / logKSV (Stern–Volmer quenching constant): HSA 2 µmol/L, decimal log ± SEM; for Kd: PBS pH 7.4, Hyperquad2006, read-out: logK (binding constant) (converted); for logKSV (Stern–Volmer quenching constant): PBS pH 7.4, λex 295 nm, λem 340 nm; for Stability of flavonoid–HSA complex vs. the chrysin–HSA complex: relative to chrysin–HSA
T3 construct: purchased Sigma-Aldrich
T3 sequence (P02768 25-609): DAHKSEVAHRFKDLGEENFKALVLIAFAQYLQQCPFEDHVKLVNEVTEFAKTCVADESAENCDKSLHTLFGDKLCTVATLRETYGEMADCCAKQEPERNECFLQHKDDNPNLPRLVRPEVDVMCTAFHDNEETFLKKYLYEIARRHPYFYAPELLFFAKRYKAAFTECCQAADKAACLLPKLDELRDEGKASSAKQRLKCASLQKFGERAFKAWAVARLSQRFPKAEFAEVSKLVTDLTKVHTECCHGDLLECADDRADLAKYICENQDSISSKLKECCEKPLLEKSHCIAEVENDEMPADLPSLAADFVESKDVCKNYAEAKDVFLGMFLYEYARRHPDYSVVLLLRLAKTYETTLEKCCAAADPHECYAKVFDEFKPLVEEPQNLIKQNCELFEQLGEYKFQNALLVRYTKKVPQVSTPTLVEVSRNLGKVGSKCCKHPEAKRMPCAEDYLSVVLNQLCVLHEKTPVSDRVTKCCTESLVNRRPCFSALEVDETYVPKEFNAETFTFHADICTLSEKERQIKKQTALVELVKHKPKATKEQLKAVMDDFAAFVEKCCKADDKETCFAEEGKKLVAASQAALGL
Method: as §3
(§4) The complex formation of flavonoids with albumin was tested with both HSA and BSA. Binding constants of flavonoid–albumin complexes were determined by fluorescence quenching, during which emission spectra of albumins (2 µmol/L) were recorded in the presence of increasing flavonoid concentrations (0.0, 0.5, 1.0, 2.0, 3.0, 4.0 and 5.0 µmol/L; λexc = 295 nm). Quenching studies were evaluated based on the graphical application of the Stern–Volmer equation [31, 34]. To eliminate the potential inner filter effects of flavonoids, fluorescence intensities were corrected as described.
(§5) Binding constants (K) of flavonoid–albumin complexes were also evaluated by non-linear fitting employing the Hyperquad2006 program package (Protonic Software, Leeds, UK) as described elsewhere. Binding constants and stoichiometry were quantified based on the model with the lowest standard deviation.

[4] = target: T4, bovine serum albumin (BSA) (Bos taurus, UniProt P02769); test: Fluorescence quenching of BSA by flavonoids (Stern–Volmer and Hyperquad2006 evaluation); assay type: binding; conditions: BSA 2 µmol/L, decimal log ± SEM; for Kd: PBS pH 7.4, Hyperquad2006, read-out: logK (binding constant) (converted); for logKSV (Stern–Volmer quenching constant): PBS pH 7.4, λex 295 nm, λem 340 nm
T4 construct: purchased Sigma-Aldrich
T4 sequence (P02769 25-607): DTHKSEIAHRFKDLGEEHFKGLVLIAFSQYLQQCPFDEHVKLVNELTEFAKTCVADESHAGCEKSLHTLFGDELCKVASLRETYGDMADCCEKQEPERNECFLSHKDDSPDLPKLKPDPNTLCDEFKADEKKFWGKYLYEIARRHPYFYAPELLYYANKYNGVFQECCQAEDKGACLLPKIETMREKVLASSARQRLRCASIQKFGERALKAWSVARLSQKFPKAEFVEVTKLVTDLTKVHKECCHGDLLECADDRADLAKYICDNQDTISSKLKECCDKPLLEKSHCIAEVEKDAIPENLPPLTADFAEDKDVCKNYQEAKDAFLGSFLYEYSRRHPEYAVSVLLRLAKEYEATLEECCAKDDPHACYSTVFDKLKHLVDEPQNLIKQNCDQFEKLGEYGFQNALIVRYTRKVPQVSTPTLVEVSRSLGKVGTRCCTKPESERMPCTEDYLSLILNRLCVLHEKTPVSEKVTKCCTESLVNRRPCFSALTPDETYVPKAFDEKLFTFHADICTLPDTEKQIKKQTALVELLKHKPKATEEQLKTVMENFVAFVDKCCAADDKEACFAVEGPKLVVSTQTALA
Method: as §3, §4, §5

[5] = tested on: T5, naproxen–HSA complex (Sudlow's Site II); test: Ultrafiltration: displacement of Site II marker naproxen from HSA; assay type: binding, human; conditions: 1 µmol/L naproxen, 1.7 µmol/L HSA, PBS pH 7.4
T5 construct: purchased Sigma-Aldrich
Method: as §1, §2
Naproxen was quantified based on the previously reported method without modifications. Acetonitrile and sodium acetate buffer (6.9 mM, pH 4.0) (50:50 v/v%) were applied in the mobile phase with a 1 mL/min flow rate during the isocratic elution. […] Separation and analysis were performed at room temperature, during which naproxen was detected by absorbance at 230 nm.

[6] = set-up: method as in PMID 25715997; conditions: mice, oral administration of 20 mg/kg chrysin; read-out: Cmax (peak plasma concentration); cited from earlier work
warfarin–HSA complex [7] = tested on: T2, warfarin–HSA complex; test: Steady-state fluorescence of warfarin–HSA complex (displacement of warfarin); assay type: binding, human; conditions: 1.0 µmol/L warfarin, 3.5 µmol/L HSA, flavonoid 0.5–10 µmol/L, λex 317 nm
Method: as §3
Displacement of warfarin (site marker of Sudlow’s Site I) from HSA was examined based on the previously reported model. Increasing concentrations of chrysin, C7S, and C7G (0.0, 0.5, 1.0, 2.0, 3.0, 5.0, and 10 µmol/L) were added to standard concentrations of warfarin and HSA (1.0 and 3.5 µmol/L, respectively). Thereafter, fluorescence emission spectra were recorded using 317 nm as excitation wavelength.

[8] = set-up: method as in PMID 11259985; conditions: healthy human volunteers, 400 mg chrysin orally; cited from earlier work
[9] = 10 and 20 μM flavonoid (both concentrations)
[10] = 10 or 20 μM flavonoid (both concentrations)

For `O=c1cc(-c2ccccc2)oc2cc(O)cc(O)c12` [Chrysin, 5,7-dihydroxyflavone], the “Concentration of warfarin in the filtrate” value (“Concentration of warfarin” below) ([1]; 20 μM flavonoid) is given as “statistically significant (albeit slight) increase”, the “K (binding constant to HSA)” value (HSA) is given as 10^5–10^6 L/mol and the “Fluorescence anisotropy of warfarin” value (warfarin–HSA complex [2]) is given as “strong decrease”. The Kd [3] was 3.89 µM, the “logKSV (Stern–Volmer quenching constant)” value [3] was 5.25 ± 0.02 L/mol and the Kd [4] was 6.31 µM. The “logKSV (Stern–Volmer quenching constant)” value [4] was 5.03 ± 0.06 L/mol, the “Concentration of naproxen in the filtrate” value (“Concentration of naproxen” below) [5, 9] was “statistically significant elevation” and the Cmax [6] was 10 nM. The “Fluorescence emission signal of warfarin at 379 nm” value (“Fluorescence emission signal” for short) (warfarin–HSA complex [7]) was “significantly decreased” and the “AUC0–∞” value [8] was 3 to 16 ng·h/mL.
With `O=C(O)C1OC(Oc2cc(O)c3c(=O)cc(-c4ccccc4)oc3c2)C(O)C(O)C1O` (stereo not shown) [Chrysin-7-glucuronide, chrysin-7-glucuronide] the “Concentration of warfarin” value [1, 10] was “did not significantly change”, the Kd [3] was 12.9 µM and the “logKSV (Stern–Volmer quenching constant)” value [3] was 4.71 ± 0.03 L/mol. For the same compound, the “Stability of flavonoid–HSA complex vs. the chrysin–HSA complex” value [3] was “threefold lower”, the Kd [4] was 23.4 µM and the “logKSV (Stern–Volmer quenching constant)” value [4] was 4.34 ± 0.03 L/mol. The “Concentration of naproxen” value ([5]; higher flavonoid concentration (20 μM)) was “significant effect”, the Cmax [6] was 130 nM and the “Fluorescence emission signal” value (warfarin–HSA complex [7]) was “only a slight (but statistically significant) effect”.
With `O=c1cc(-c2ccccc2)oc2cc(OS(=O)(=O)O)cc(O)c12` [Chrysin-7-sulfate, chrysin-7-sulfate] the “Concentration of warfarin” value ([1]; 10 μM flavonoid) was “remarkable increase”, the “Concentration of warfarin” value [1, 10] was “practically the complete displacement of bound warfarin molecules from HSA” and the “Fluorescence anisotropy of warfarin” value (warfarin–HSA complex [2]) was “strong decrease”. The Kd [3] was 1.32 µM, the “logKSV (Stern–Volmer quenching constant)” value [3] was 5.61 ± 0.03 L/mol and the “Stability of flavonoid–HSA complex vs. the chrysin–HSA complex” value [3] was “threefold higher”. The Kd [4] was 0.631 µM, the “logKSV (Stern–Volmer quenching constant)” value [4] was 5.86 ± 0.04 L/mol and the “Concentration of naproxen” value [5, 9] was “statistically significant elevation”. The Cmax [6] was 160 nM, the “Fluorescence emission signal” value (warfarin–HSA complex [7]) was “strongest decrease” and the “AUC0–∞” value [8] was 420 to 4220 ng·h/mL. The “AUC0–∞ of C7S compared with chrysin” value [8] was “approximately 30 fold”.
For `C[C@@H]1Cc2c(Cl)cc(C(=O)N[C@@H](Cc3ccccc3)C(=O)O)c(O)c2C(=O)O1` [Ochratoxin A, ochratoxin A, reference compound], the “logK (complex with HSA)” value (HSA) is listed as 7.4–7.6.
